Results from PubChem BioAssay AID192 (DTP/NCI, 2004).
Where “and” joins values, the source holds several entries; their conditions need not be identical. Equal values may be shown once. Inconclusive results and toxic doses are left out.

System: BDF1 mice, B16 melanoma ip, median survival T/C
Test: NCI In Vivo Anticancer Drug Screen. Data for tumor model B16 Melanoma (intraperitoneal) in B6D2F1 (BDF1) mice
Conditions: endpoint: median survival time, higher = longer survival
Method in brief: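 Compounds were tested in mice carrying transplantable tumors. Survival or tumor size was recorded, and each value is the treated-group measurement (T) divided by that of the vehicle-treated control group (C).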

[1] = dose: 1.25 mg/kg/injection, schedule: Q01DX009 (ip), vehicle: saline
[2] = dose: 2.5 mg/kg/injection, schedule: Q01DX009 (ip), vehicle: saline
[3] = dose: 5.0 mg/kg/injection, schedule: Q01DX009 (ip), vehicle: saline
[4] = dose: 100.0 mg/kg/injection, schedule: Q01DX009 (ip), vehicle: saline with Tween-80
[5] = dose: 200.0 mg/kg/injection, schedule: Q01DX009 (ip), vehicle: saline with Tween-80
[6] = dose: 400.0 mg/kg/injection, schedule: Q01DX009 (ip), vehicle: saline with Tween-80
[7] = dose: 12.5 mg/kg/injection, schedule: Q01DX009 (ip), vehicle: saline
[8] = dose: 25.0 mg/kg/injection, schedule: Q01DX009 (ip), vehicle: saline
[9] = dose: 50.0 mg/kg/injection, schedule: Q01DX009 (ip), vehicle: saline
[10] = dose: 100.0 mg/kg/injection, schedule: Q01DX009 (ip), vehicle: saline
[11] = dose: 200.0 mg/kg/injection, schedule: Q01DX009 (ip), vehicle: saline
[12] = dose: 400.0 mg/kg/injection, schedule: Q01DX009 (ip), vehicle: saline
[13] = dose: 25.0 mg/kg/injection, schedule: Q01DX009 (ip), vehicle: saline with Tween-80
[14] = dose: 2.5 mg/kg/injection, schedule: Q01DX009 (ip), vehicle: saline with Tween-80
[15] = dose: 6.25 mg/kg/injection, schedule: Q01DX009 (ip), vehicle: saline with Tween-80
[16] = dose: 12.5 mg/kg/injection, schedule: Q01DX009 (ip), vehicle: saline with Tween-80
[17] = dose: 6.25 mg/kg/injection, schedule: Q01DX009 (ip), vehicle: saline
[18] = dose: 100.0 mg/kg/injection, schedule: Q01DX009 (ip), vehicle: Klucel (hydroxypropylcellulose) (HPC)
[19] = dose: 200.0 mg/kg/injection, schedule: Q01DX009 (ip), vehicle: Klucel (hydroxypropylcellulose) (HPC)
[20] = dose: 50.0 mg/kg/injection, schedule: Q01DX009 (ip), vehicle: Klucel (hydroxypropylcellulose) (HPC)
[21] = dose: 400.0 mg/kg/injection, schedule: Q01DX009 (ip), vehicle: Klucel (hydroxypropylcellulose) (HPC)

C=CCN(CC=C)C(=O)CCN1CC1
T/C [1]: 100 % of control
T/C (dose: 1.25 mg/kg/injection, schedule: Q04DX003 (ip), vehicle: saline): 102 % of control
T/C [2]: 100 % of control
T/C (dose: 2.5 mg/kg/injection, schedule: Q04DX003 (ip), vehicle: saline): 100 % of control
T/C [3]: 100 % of control
T/C (dose: 5.0 mg/kg/injection, schedule: Q04DX003 (ip), vehicle: saline): 105 % of control

O=C(N/N=C/c1cccc(S(=O)(=O)O)c1)c1ccncc1
T/C [4]: 99 % of control
T/C [5]: 100 % of control
T/C [6]: 103 % of control

COc1cc(C(=O)N2CCN(c3ccccc3)CC2)c2ccccc2n1
T/C [4]: 119 % of control
T/C [5]: 119 % of control
T/C [6]: 124 % of control

O=C(CCc1ccc(O)cc1)c1c(O)cc(O)cc1O
T/C (dose: 50.0 mg/kg/injection, schedule: Q01DX009 (ip), vehicle: saline + alcohol): 110 % of control
T/C (dose: 100.0 mg/kg/injection, schedule: Q01DX009 (ip), vehicle: saline + alcohol): 102 % of control
T/C (dose: 400.0 mg/kg/injection, schedule: Q01DX009 (ip), vehicle: saline + alcohol): 107 % of control

OCC12COCN1COC2
T/C [7]: 117 % of control
T/C [8]: 119 % of control
T/C [9]: 111 % of control
T/C [10]: 117 % of control
T/C [11]: 119 % of control

CCCCOC(=O)C(CC)(CC)C(=O)OCCCC
T/C [10]: 110 % of control
T/C [11]: 113 % of control
T/C [12]: 93 % of control

C/C=C/CNc1ccc(C)cc1
T/C [13]: 102 % of control
T/C (dose: 50.0 mg/kg/injection, schedule: Q01DX009 (ip), vehicle: saline with Tween-80): 102 % of control
T/C [4]: 92 % of control

CC(C)CC(NC(=O)C(O)C(N)Cc1ccccc1)C(=O)O (stereo unspecified)
T/C (dose: 0.05 mg/kg/injection, schedule: Q01DX009 (oral), vehicle: saline): 97 % of control
T/C (dose: 0.5 mg/kg/injection, schedule: Q01DX009 (oral), vehicle: saline): 97 % of control
T/C (dose: 5.0 mg/kg/injection, schedule: Q01DX009 (oral), vehicle: saline): 96 % of control

CC(C)NNC(=O)c1ccncc1
T/C [7]: 107 % of control
T/C [8]: 94 % of control and 101 % of control
T/C [9]: 95 % of control and 101 % of control
T/C [10]: 110 % of control
T/C [11]: 92 % of control and 104 % of control

CCCCCCCC(=O)O[C@H]1[C@H]2[C@@H](CC1(C)C)C(=O)[C@]13O[C@H]1C(=O)[C@]1(CO1)[C@]23C
T/C (dose: 0.31 mg/kg/injection, schedule: Q01DX009 (ip), vehicle: Klucel (hydroxypropylcellulose) (HPC)): 98 % of control
T/C (dose: 0.63 mg/kg/injection, schedule: Q01DX009 (ip), vehicle: Klucel (hydroxypropylcellulose) (HPC)): 102 % of control
T/C (dose: 0.63 mg/kg/injection, schedule: Q01DX009 (ip), vehicle: saline with Tween-80): 92 % of control
T/C (dose: 1.25 mg/kg/injection, schedule: Q01DX009 (ip), vehicle: Klucel (hydroxypropylcellulose) (HPC)): 100 % of control
T/C (dose: 1.25 mg/kg/injection, schedule: Q01DX009 (ip), vehicle: saline with Tween-80): 89 % of control
T/C (dose: 2.5 mg/kg/injection, schedule: Q01DX009 (ip), vehicle: Klucel (hydroxypropylcellulose) (HPC)): 98 % of control
T/C [14]: 92 % of control
T/C (dose: 5.0 mg/kg/injection, schedule: Q01DX009 (ip), vehicle: Klucel (hydroxypropylcellulose) (HPC)): 90 % of control
T/C (dose: 10.0 mg/kg/injection, schedule: Q01DX009 (ip), vehicle: Klucel (hydroxypropylcellulose) (HPC)): 86 % of control

CN(C)CC(Cl)CCl (stereo unspecified)
T/C [9]: 98 % of control
T/C [10]: 102 % of control
T/C [11]: 105 % of control
T/C [12]: 108 % of control

CCCCCCCCCCCCCCCCCCNC(=O)Nc1c(C)cc(C)cc1C
T/C (dose: 100.0 mg/kg/injection, schedule: Q01DX009 (ip), vehicle: gum acacia): 88 % of control

NC(N)=NC(N)=Nc1ccc(-c2ccc(N=C(N)N=C(N)N)cc2)cc1
T/C [15]: 102 % of control
T/C [16]: 96 % of control

CCC(C)C(=O)OC1C(=O)OC2CC3C(C)=CC(=O)C(O)C3(C)C3C4(O)OCC23C1C(C)C4O (stereo unspecified)
T/C (dose: 1.4 mg/kg/injection, schedule: Q01DX009 (ip), vehicle: saline): 157 % of control
T/C (dose: 2.8 mg/kg/injection, schedule: Q01DX009 (ip), vehicle: saline with Tween-80): 153 % of control

C=CC(=O)O
T/C (dose: 3.13 mg/kg/injection, schedule: Q01DX009 (ip), vehicle: saline): 112 % of control
T/C [17]: 114 % of control
T/C [7]: 114 % of control

Cc1ccc2c(C)c3c(ccc4ccccc43)c[n+]2c1
T/C [1]: 100 % of control
T/C [14]: 95 % of control
T/C [2]: 100 % of control
T/C (dose: 5.0 mg/kg/injection, schedule: Q01DX009 (ip), vehicle: saline with Tween-80): 95 % of control
T/C [3]: 100 % of control
T/C (dose: 10.0 mg/kg/injection, schedule: Q01DX009 (ip), vehicle: saline): 105 % of control

COCCCN1CCN(c2ccccc2OC)CC1
T/C [8]: 101 % of control
T/C [9]: 92 % of control

Cc1ccc(C)c(NS(=O)(=O)c2ccc(Cl)cc2)c1
T/C [18]: 93 % of control
T/C [19]: 92 % of control

O=C1NC(Cc2ccc(N(CCCl)CCCl)cc2)C(=O)O1 (stereo unspecified)
T/C (dose: 0.1 mg/kg/injection, schedule: Q01DX009 (ip), vehicle: saline with Tween-80): 94 % of control
T/C (dose: 0.2 mg/kg/injection, schedule: Q01DX009 (ip), vehicle: saline with Tween-80): 102 % of control
T/C (dose: 0.4 mg/kg/injection, schedule: Q01DX009 (ip), vehicle: saline with Tween-80): 105 % of control
T/C (dose: 3.0 mg/kg/injection, schedule: Q01DX009 (ip), vehicle: saline with Tween-80): 157 % of control
T/C (dose: 3.13 mg/kg/injection, schedule: Q01DX009 (ip), vehicle: saline with Tween-80): 197 % of control
T/C (dose: 6.0 mg/kg/injection, schedule: Q01DX009 (ip), vehicle: saline with Tween-80): 203 % of control
T/C [16]: 155 % of control

Cc1ccc(Cl)cc1NC(=O)c1cccc(C(=O)Nc2cc(Cl)ccc2C)c1
T/C [20]: 96 % of control
T/C [18]: 93 % of control

CC(C)(C)CC(C)(C)CC(C)(C)NCCCN
T/C [15]: 105 % of control
T/C [16]: 91 % of control
T/C [13]: 86 % of control

O=P(N1CCOCC1)(N1CC1)N1CC1
T/C [17]: 115 % of control
T/C [7]: 118 % of control

O=C(CCCN1CCN(c2ccccn2)CC1)c1ccc(F)cc1
T/C (dose: 0.19 mg/kg/injection, schedule: Q01DX009 (ip), vehicle: Klucel (hydroxypropylcellulose) (HPC)): 93 % of control
T/C (dose: 0.39 mg/kg/injection, schedule: Q01DX009 (ip), vehicle: Klucel (hydroxypropylcellulose) (HPC)): 89 % of control
T/C (dose: 0.78 mg/kg/injection, schedule: Q01DX009 (ip), vehicle: Klucel (hydroxypropylcellulose) (HPC)): 110 % of control
T/C (dose: 1.56 mg/kg/injection, schedule: Q01DX009 (ip), vehicle: Klucel (hydroxypropylcellulose) (HPC)): 92 % of control
T/C (dose: 3.12 mg/kg/injection, schedule: Q01DX009 (ip), vehicle: Klucel (hydroxypropylcellulose) (HPC)): 88 % of control

CN(C)/C=C(/C#N)C(=O)N1CCCC1
T/C (dose: 37.5 mg/kg/injection, schedule: Q04DX003 (ip), vehicle: saline): 95 % of control
T/C (dose: 75.0 mg/kg/injection, schedule: Q04DX003 (ip), vehicle: saline): 88 % of control
T/C (dose: 150.0 mg/kg/injection, schedule: Q04DX003 (ip), vehicle: saline): 100 % of control

O=C(NC1CCCCC1)Oc1ccccc1-c1ccccc1
T/C [18]: 88 % of control
T/C [21]: 100 % of control

CC(C)(C)CC(N)=O
T/C [20]: 112 % of control
T/C [18]: 100 % of control
T/C [10]: 107 % of control
T/C [19]: 105 % of control
T/C [11]: 123 % of control
T/C [21]: 105 % of control
T/C [12]: 107 % of control
